Values of other authors as cited in US20150374705A1, “Substances for treatment or relief of pain” (Shanghai Institues for Biological Sciences, priority 2012, published 2015).
“Also recorded” adds a separate entry of the source. Read-outs that look alike come from different tables or passages of the source.

How the values were obtained:
[1] = tested on: α5-GABAA receptor in central nervous system; settings: in vivo, Jones et al. 2006; cited from earlier work
[2] = tested on: rat model of inflammatory and neuropathic pain; settings: Munro G et al., Neuropharmacology 2011; cited from earlier work
[3] = human, Phase II, cited from earlier work

| Compound | Binding to α5-GABAA receptor in brain / inhibition of (3H)Ro-15-1788 binding in center [1] | Inhibition rate of the binding of (3H)Ro-15-1788 in center [1] | Effect on treating pain reported in literature [2] | Toxicity in Phase II clinical trial [3] | Toxicity in Phase II clinical trial ([3]; listed as A5I) |
| --- | --- | --- | --- | --- | --- |
| Cn1ncnc1COc1nn2c(-c3cc(CO)on3)nncc2c1C(C)(C)C [MRK016-M3, (3-(3-tert-butyl-2-((2-methyl-2H-1,2,4-triazol-3-yl)methoxy)pyrazolo [1,5-d][1,2,4]triazin-7-yl)isoxazol-5-yl)methanol] | not capable of binding the α5-GABAA receptor in brain; also recorded: cannot significantly inhibit; also recorded: could hardly enter into the brain | about 12% |  |  |  |
| Cc1cc(-c2nnc3c4ccccc4c(OCC4=CC(C)C=N4)nn23)no1 (stereo not drawn) [α5IA] |  |  | no effect | certain toxic problems | renal toxicity |
